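Following 48 hours of exposure in 96-well plates, responses at five concentrations were used to interpolate endpoints linearly. The concentration for full growth arrest is given as TGI.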
How the values were obtained:
Assay in all cases: growth of human tumour cells (NCI), 48 h
HOP-62 NSCLC = system: HOP-62 NSCLC
SK-MEL-28 melanoma = system: SK-MEL-28 melanoma
UACC-62 melanoma = system: UACC-62 melanoma
HT29 colon = system: HT29 colon
HS 578T breast = system: HS 578T breast
BT-549 breast = system: BT-549 breast
UACC-257 melanoma = system: UACC-257 melanoma
SW-620 colon = system: SW-620 colon
PC-3 prostate = system: PC-3 prostate
NCI-H522 lung = system: NCI-H522 lung
U251 CNS = system: U251 CNS
786-0 renal = system: 786-0 renal
MDA-MB-231 breast = system: MDA-MB-231 breast
NCI-H460 lung = system: NCI-H460 lung
K-562 leukemia = system: K-562 leukemia
CCRF-CEM leukemia = system: CCRF-CEM leukemia
NCI-H226 lung = system: NCI-H226 lung

Row | SMILES | TGI (HOP-62 NSCLC) | TGI (SK-MEL-28 melanoma) | TGI (UACC-62 melanoma) | TGI (HT29 colon) | TGI (HS 578T breast) | TGI (BT-549 breast) | TGI (UACC-257 melanoma) | TGI (SW-620 colon) | TGI (PC-3 prostate) | TGI (NCI-H522 lung) | TGI (U251 CNS) | TGI (786-0 renal) | TGI (MDA-MB-231 breast) | TGI (NCI-H460 lung) | TGI (K-562 leukemia) | TGI (CCRF-CEM leukemia) | TGI (NCI-H226 lung)
1 | COCN1C(=O)[C@@H]2CCCN2C(=O)c2cc(OC)c(Cc3ccccc3)cc21 | > 100 µM | > 100 µM | > 100 µM | > 100 µM | > 100 µM | > 100 µM | > 100 µM | > 100 µM | > 100 µM | > 100 µM | > 100 µM | > 100 µM | > 100 µM | – | – | – | –
2 | O=c1[nH]c(=S)[nH]cc1CN1CCOCC1 | > 100 µM | > 100 µM | > 100 µM | > 100 µM | > 100 µM | > 100 µM | > 100 µM | > 100 µM | > 100 µM | > 100 µM | > 100 µM | > 100 µM | > 100 µM | > 100 µM | > 100 µM | > 100 µM | –
3 | O=C1CSC(c2c[nH]c3ccccc23)N1c1cccc(Cl)c1 (stereo not given) | > 100 µM | > 100 µM | > 100 µM | > 100 µM | > 100 µM | 96.6 µM | > 100 µM | > 100 µM | – | – | > 100 µM | 47.1 µM | 80.2 µM | > 100 µM | > 100 µM | > 100 µM | > 100 µM
4 | N#CC(C#N)=c1c(=O)c2c3ccccc3cc3cccc1c32 | > 100 µM | > 100 µM | > 100 µM | > 100 µM | 85 µM | > 100 µM | > 100 µM | > 100 µM | > 100 µM | – | > 100 µM | > 100 µM | > 100 µM | > 100 µM | – | > 100 µM | > 100 µM
5 | CCCN(CCC)C(=S)Sc1nc(C)nc(N2CCN(c3nc(C)nc(SC(=S)N(CCC)CCC)c3[N+](=O)[O-])CC2)c1[N+](=O)[O-] | > 85 µM | 36.9 µM | 60.3 µM | 21.7 µM | > 100 µM | 26.9 µM | 54.2 µM | 17.1 µM | 53.4 µM | 3.17 µM | 16.7 µM | > 53 µM | 20.3 µM | > 100 µM | – | 8.55 µM | > 62.2 µM
6 | CC(=O)N1C=Cc2c(c(C)c3c([nH]c4ccccc43)c2C)C1 | 17.5 µM | 31.8 µM | – | 18 µM | 15.9 µM | 14.6 µM | 29.6 µM | 7.47 µM | 19.6 µM | 29.7 µM | 19.4 µM | 6.73 µM | 9.34 µM | – | > 100 µM | > 100 µM | 31.9 µM
7 | Cc1nc2ccc(F)cc2c2c1CCS2 | > 100 µM | > 100 µM | > 100 µM | > 100 µM | > 100 µM | > 100 µM | > 100 µM | > 100 µM | > 100 µM | > 100 µM | > 100 µM | > 100 µM | 86.9 µM | > 100 µM | 94.5 µM | > 100 µM | –
8 | CSC(=S)CC(O)[C@@H]1CC2c3ccccc3C1c1ccccc12 (stereo not given in full) | 38.2 µM | 48.5 µM | 25.4 µM | 15 µM | 80.2 µM | 34.2 µM | – | > 100 µM | 48.6 µM | 10.9 µM | 13 µM | 41.3 µM | 54.3 µM | 40.8 µM | 30.4 µM | 10.6 µM | 79.1 µM
9 | COc1ccc(N2C(=O)c3cc([N+](=O)[O-])cnc3S2(=O)=O)cc1 | > 100 µM | > 100 µM | > 100 µM | > 100 µM | > 100 µM | > 100 µM | – | > 100 µM | > 100 µM | > 100 µM | > 100 µM | > 100 µM | > 100 µM | > 100 µM | > 100 µM | > 100 µM | > 100 µM
10 | CN(Cc1cnc2nc(N)nc(N)c2n1)c1ccc(C(=O)NCCCS(=O)(=O)O)cc1 | > 100 µM | > 100 µM | > 100 µM | > 100 µM | > 100 µM | > 100 µM | > 100 µM | > 100 µM | > 100 µM | > 100 µM | > 100 µM | > 100 µM | > 100 µM | > 100 µM | > 100 µM | – | > 100 µM
11 | COC(=O)c1c(O)c(C#N)c2[nH]c3ccccc3n2c1=O | > 100 µM | – | > 100 µM | > 100 µM | > 100 µM | > 100 µM | > 100 µM | > 100 µM | > 100 µM | > 100 µM | > 100 µM | > 100 µM | > 100 µM | > 100 µM | > 100 µM | > 100 µM | > 100 µM
12 | CCCCNC(=O)OCCN=c1c2ccccc2ccc2ccccc12 | > 100 µM | > 100 µM | > 100 µM | > 100 µM | > 100 µM | > 100 µM | > 100 µM | > 100 µM | > 100 µM | – | > 100 µM | > 100 µM | > 100 µM | > 100 µM | > 100 µM | > 100 µM | > 100 µM
13 | C/C=C1/CC(C(=O)OC)N(C(=O)OCc2ccccc2)C1=S (stereo not given) | > 100 µM | > 100 µM | > 100 µM | > 100 µM | > 100 µM | > 100 µM | > 100 µM | > 100 µM | > 100 µM | > 100 µM | > 100 µM | > 100 µM | > 100 µM | 38.8 µM | > 100 µM | – | –
14 | COc1cc([C@@H]2c3cc4c(cc3[C@H](OC3OC5COC(c6ccco6)OC5C(O)C3O)C3COC(=O)[C@@H]32)OCO4)cc(OC)c1OC (stereo not given in full) | > 100 µM | – | > 100 µM | > 100 µM | > 100 µM | 85.7 µM | > 100 µM | > 100 µM | > 35.9 µM | > 57.3 µM | > 100 µM | > 34.5 µM | > 100 µM | – | – | – | > 100 µM
15 | CCCc1nnc2sc(COc3ccc(OCc4nn5c(CCC)nnc5s4)c(Cl)c3)nn12 | > 100 µM | > 100 µM | 59.4 µM | 98.9 µM | > 100 µM | > 100 µM | 51.1 µM | > 100 µM | > 100 µM | > 100 µM | > 100 µM | > 100 µM | > 100 µM | 78.1 µM | > 100 µM | – | > 100 µM
